Assay results as given in patent US20200038397A1, “PHARMACOTHERAPY FOR PREVENTING OR TREATING GLAUCOMA” (KOWA COMPANY, LTD., priority 2014, published 2020).

Test system: white rabbit
Assay: intraocular pressure-lowering effect of single and combined eye drop administration in white rabbits
Type: in vivo
Conditions: for IOP: intraocular pressure, 0 h: initial intraocular pressure immediately before application; for IOP: intraocular pressure, 0 h / IOP: intraocular pressure, 0.5 h / IOP: intraocular pressure, 1 h: n = 10, Compound 1 0.4% 50 μL, brimonidine 0.1% 50 μL; for IOP: intraocular pressure, 0.5 h: 0.5 h after application; for IOP: intraocular pressure, 1 h: 1 h after application
Protocol: To investigate the usefulness of the combination of (S)-(−)-1-(4-fluoro-5-isoquinolinesulfonyl)-2-methyl-1,4-homopiperazine (Compound 1) and an α2 agonist, intraocular pressure-lowering effect was compared between the case where each drug was singly administered to an experimental animal and the case where the drugs were administered to an experimental animal in combination.
(S)-(−)-1-(4-fluoro-5-isoquinolinesulfonyl)-2-methyl-1,4-homopiperazine hydrochloride dihydrate was dissolved in physiological saline, and the solution was then neutralized (pH 6.0) with addition of sodium dihydrogen phosphate and sodium hydroxide to prepare a solution of Compound 1 at a desired concentration.
Commercially available brimonidine (Senju Pharmaceutical Co., Ltd., AIPHAGAN eye drop 0.1%) was directly used.
The intraocular pressure-lowering effect of combined administration of Compound 1 and brimonidine was investigated. As controls, the intraocular pressure-lowering effect of single administration of Compound 1 and that of single administration of brimonidine were further investigated.
Solution of Compound 1: 0.4% solution (amount of application: 50 μL)
Brimonidine: 0.1% eye drop (amount of application: 50 μL)
Experimental animal: white rabbit (sex: male, 10 rabbits per group)
1) One drop of […] oxybuprocaine hydrochloride eye drop (trade name: Benoxil 0.4% solution) was applied to both eyes of an experimental animal for local anesthesia (data were acquired only from the eye to which the eye drop was applied).
2) The intraocular pressure was measured immediately before administration of a solution of a test compound, and the measurement was used as the initial intraocular pressure.
3) The solution of Compound 1 was applied to one eye of the experimental animal, and subsequently the solution of brimonidine was applied to the same eye.
4) One drop of the 0.4% oxybuprocaine hydrochloride eye drop was applied to each eye for local anesthesia 0.5 hours, 1 hour, 2 hours, 3 hours, 4 hours, and 5 hours after the application of the agents, and the intraocular pressure was then measured.
Compound 1 was singly applied, and a test was performed at the same measurement times as in the combined administration test.
A test was performed using the same method as in the single administration test except that the test solution in the single administration of Compound 1 was replaced with that of brimonidine.
The intraocular pressure was represented as an amount of change from the initial intraocular pressure. For statistical processing, Stat Preclinica Client 1.1 with parametric Tukey's multiple comparison was used.

## Brc1c(NC2=NCCN2)ccc2nccnc12 [Brimonidine, brimonidine]
  IOP: intraocular pressure, 0 h: 24.2 ± 1.3 mmHg
  IOP: intraocular pressure, 0.5 h: 25.2 ± 0.9 mmHg
  IOP: intraocular pressure, 1 h: 19.4 ± 1.2 mmHg
0.5 hours after application
  intraocular pressure-lowering action 0.5 hours after application of an eye drop (in words): no intraocular pressure-lowering action

## C[C@H]1CNCCCN1S(=O)(=O)c1cccc2cncc(F)c12 [Compound 1, (S)-(−)-1-(4-fluoro-5-isoquinolinesulfonyl)-2-methyl-1,4-homopiperazine]
  IOP: intraocular pressure, 0 h: 26.5 ± 0.8 mmHg
  IOP: intraocular pressure, 0.5 h: 20.5 ± 1.2 mmHg
  IOP: intraocular pressure, 1 h: 15.9 ± 1.0 mmHg
